Values joined by “and” are separate entries in the source; they are usually repeats but may differ in a detail not shown here. Identical values can stand only once. Like-named read-outs stand apart in the source and are kept apart here.
Columns and labels:
GLUT1 [1] = biological target: T1, GLUT1 (Homo sapiens, UniProt P11166); assay: biochemical
T1 sequence (P11166 1-492): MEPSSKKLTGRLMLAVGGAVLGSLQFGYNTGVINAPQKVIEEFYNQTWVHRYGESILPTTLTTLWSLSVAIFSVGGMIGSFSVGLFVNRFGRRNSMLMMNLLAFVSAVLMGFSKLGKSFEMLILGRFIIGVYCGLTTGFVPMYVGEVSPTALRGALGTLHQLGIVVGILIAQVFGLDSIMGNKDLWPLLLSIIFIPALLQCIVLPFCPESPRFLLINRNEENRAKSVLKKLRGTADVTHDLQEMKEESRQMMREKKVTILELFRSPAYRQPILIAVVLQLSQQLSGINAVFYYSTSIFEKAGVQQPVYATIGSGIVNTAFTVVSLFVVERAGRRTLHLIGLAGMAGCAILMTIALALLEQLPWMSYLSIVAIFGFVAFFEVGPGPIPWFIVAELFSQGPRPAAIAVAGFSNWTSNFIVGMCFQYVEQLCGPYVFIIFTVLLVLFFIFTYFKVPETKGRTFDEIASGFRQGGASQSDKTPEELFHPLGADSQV

[2] = biological target: T2, GLUT1-mediated sugar transport in red cells (Homo sapiens, UniProt P11166); assay: Equilibrium exchange 3-O-methylglucose uptake in red cells; assay type: cell-based
T2 sequence (P11166 1-492): T1 sequence (P11166 1-492)

GLUT1 [3] = biological target: T1, GLUT1
[4] = biological target: T2, GLUT1-mediated sugar transport in red cells; assay: Zero-trans 3-O-methylglucose uptake in red cells; assay type: cell-based
GLUT1 [5] = biological target: T1, GLUT1; assay type: binding; conditions: for β (cooperativity parameter, second inhibitor molecule) / γ (hetero-cooperativity parameter) / Inhibition (type of modulation of CB binding) / Ki: 50 nM [3H]-CB; for β (cooperativity parameter, second inhibitor molecule) / γ (hetero-cooperativity parameter): eqn 6; for Inhibition (type of modulation of CB binding): competing ligand 0 to 100 μM; for ΔG°: calculated as RT ln(1/KI); for β*γ: product; for α (homo-cooperativity factor): CB inhibition of [3H]-CB binding
[6] = tested on: [3H]-CB binding to red cell membranes; conditions: cited from earlier work
GLUT1 [7] = biological target: T1, GLUT1; conditions: 4°C; cited from earlier work
[8] = Ki (affinity of unoccupied GLUT1 for ligand), 4°C, eqn 6, iterative free [I]
[9] = Ki, eqn 6, values in text or legends

C=C[C@@]1(C)CC(=O)[C@]2(O)[C@@]3(C)[C@@H](O)CCC(C)(C)[C@@H]3[C@H](O)[C@H](OC(C)=O)[C@@]2(C)O1 [FSK, forskolin]
Kd (GLUT1 [1]; KL, FSK inhibition of [3H]-FSK binding (50 nM), 4°C, eqn 7, assumes α = β = γ): 2750 ± 787 nM | Kd (GLUT1 [1]; Kl, fit versus measured free FSK): 2830 ± 754 nM | Kd (GLUT1 [1]; Kl, fit versus total FSK): 3330 ± 893 nM | Ki [2]: 1200 ± 600 nM | Kmapp for 3MG uptake in presence of inhibitor ([2]; equilibrium exchange, 2 μM FSK): 48.5 ± 7.3 mM | Vmax for 3MG uptake in presence of inhibitor ([2]; equilibrium exchange, 2 μM FSK): 8.3 ± 0.7 mM/L/min | mode of inhibition of exchange sugar uptake ([2]; human erythrocytes): competitive inhibitor | Kd for forskolin binding relative to Kd for CB binding (GLUT1 [3]): at least 20 fold | α (homo-cooperativity factor) (GLUT1 [3]; FSK inhibition of [3H]-FSK binding, 4°C): 2.43 ± 0.23 | α (GLUT1 [3]; fit versus measured free FSK): 2.400 ± 0.212 | α (GLUT1 [3]; fit versus simulated free FSK): 2.434 ± 0.235 | α (GLUT1 [3]; fit versus total FSK): 2.383 ± 2.116 | Ki [4]: 1900 ± 400 nM | mode of inhibition of net sugar uptake ([4]; human erythrocytes): noncompetitive inhibitor | Kmapp for 3MG uptake in presence of inhibitor ([4]; zero-trans, 2 μM FSK): 1.09 ± 0.15 mM | Vmax for 3MG uptake in presence of inhibitor ([4]; zero-trans, 2 μM FSK): 0.055 ± 0.004 mM/L/min | β (cooperativity parameter, second inhibitor molecule) (GLUT1 [5]; 4°C): 1.54 ± 0.73 | γ (hetero-cooperativity parameter) (GLUT1 [5]; 4°C): 0.93 ± 0.10 and 0.930 ± 0.103 and 0.9 | γ (hetero-cooperativity parameter) (GLUT1 [5]; 4°C, listed as forskolin): 0.93 | Inhibition (type of modulation of CB binding) (GLUT1 [5]): 1 | Ki (GLUT1 [5]; [8]): 3280 ± 960 nM | Ki (GLUT1 [5]; [9]): 3280 ± 980 nM | ΔG° (GLUT1 [5]): -6.95 kcal/mol | β*γ (GLUT1 [5]): 1

C[C@H]1C/C=C/[C@H]2[C@@H]3O[C@]3(C)[C@@H](C)[C@H]3[C@H](Cc4ccccc4)NC(=O)[C@]32OC(=O)O/C=C/[C@@](C)(O)C1=O [CCE, Cytochalasin E]
Ki ([6]; read-out: Ki(app) for inhibition of [3H]-CB binding, red cell membranes): ≥ 100000 nM | β (cooperativity parameter, second inhibitor molecule) (GLUT1 [5]; 4°C): 7917 ± 2935 | γ (hetero-cooperativity parameter) (GLUT1 [5]; 4°C): 0.555 ± 0.016 | Inhibition (type of modulation of CB binding) (GLUT1 [5]): 3 | Kd (GLUT1 [5]; KL (Table 2, taken from Table 1), cytochalasins, rounded values): 100 nM | Ki (GLUT1 [5]; [8]): 99 ± 8 nM | Ki (GLUT1 [5]; [9]): 100 nM | ΔG° (GLUT1 [5]): -8.88 kcal/mol | ΔΔG° (GLUT1 [5]; change in ΔG° relative to baseline cytochalasin or forskolin): 0.01 kcal/mol | β*γ (GLUT1 [5]): 4394

C=C1[C@@H](C)[C@H]2[C@H](Cc3ccccc3)NC(=O)[C@]23OC(=O)/C=C/[C@H](O)CCC[C@@H](C)C/C=C/[C@H]3[C@@H]1O [CCB, Cytochalasin B]
inhibition of CB binding [6]: high affinity | β (cooperativity parameter, second inhibitor molecule) (GLUT1 [5]; 4°C): 6.284 ± 3.849 | γ (hetero-cooperativity parameter) (GLUT1 [5]; 4°C): 6.284 ± 3.849 | β (cooperativity parameter, second inhibitor molecule) (GLUT1 [5]; 4°C, listed as CB): 6.3 | γ (hetero-cooperativity parameter) (GLUT1 [5]; 4°C, listed as CB): 6.3 | Inhibition (type of modulation of CB binding) (GLUT1 [5]): 1 | α (homo-cooperativity factor) (GLUT1 [5]; 4°C): 6.284 ±3.849 | α (homo-cooperativity factor) (GLUT1 [5]; 4°C, listed as CB): 6.284 ± 0.558 | ΔG° (GLUT1 [5]): -8.88 kcal/mol | α (GLUT1 [5]; fit versus measured free CB): 5.441 ± 0.558 | α (GLUT1 [5]; fit versus simulated free CB): 7.01 ± 0.53 | α (GLUT1 [5]; fit versus total CB): 10.0 ± 1.0 | β*γ (GLUT1 [5]): 39 | time constant of binding to GLUT1 (GLUT1 [7]): 1 s

— paper PMC3465710 (Biochemistry, 2011)
